Results as given in patent US10144713B1, “Bis-cyclic guanidines as antibacterial agents” (UNIVERSITY OF SOUTH FLORIDA, priority 2017, dated 2018).

What was measured:
[1] = tested on: P. aeruginosa (ATCC27853); experiment: MIC against P. aeruginosa; format: cell-based; conditions: Pseudomonas aeruginosa, ATCC27853; Gram −; 16 h, 37° C.
Experimental: (§1) Minimum Inhibitory Concentrations (MICs) Against Bacteria.
(§2) The antimicrobial activity of the compounds was tested on the following six bacteria strains: K. pneumoniae (ATCC 13383), P. aeruginosa (ATCC27853), E. coli (ATCC 25922), vancomycin-resistant Enterococcus faecalis(ATCC 700802), Methicillin-resistant S. aureus (MRSA, ATCC 33591), Methicillin-resistant S. epidermidis (MRSE, RP62A). The procedures were followed as reported previously (Hancock et al., Immunobiology 2006, 211, 315-322). Briefly, a single colony of each bacterium was inoculated in 3 mL TSB medium and incubated overnight at 37° C. Then the bacteria culture was diluted at 1:100 and the bacteria were allowed to grow to mid-logarithmic phase. Next, 50 μL of 2-fold serial dilutions of compounds (0.1-25 μg/mL) were added the 96-well plate containing aliquots of 50 μL of bacteria suspension (1×10^6 CFU/mL) in each well. The mixture was incubated at 37° C. for 16 h, and their absorption at 600 nm wavelength was read on a Biotek Synergy HT microtiter plate reader. […] The experiments were repeated at least three times with duplicates each time. HC50 means the concentration causing 50% hemolysis.

[2] = tested on: Methicillin-resistant S. epidermidis (MRSE, RP62A); experiment: MIC against MRSE; format: cell-based; conditions: Staphylococcus epidermidis, MRSE; Gram +; 16 h, 37° C.
Experimental: as §1, §2

S. aureus ATCC 33591 = experiment: Thigh burden infection model in neutropenic mice; format: in vivo, CD-1 female mice; conditions: 5 mg/kg i.v. at 1 and 7 h after infection, thighs harvested at 25 h
Experimental: Neutropenic mice (n=4 per group) were inoculated in the posterior thigh muscles with S. aureus ATCC 33591 at 1×10^6 CFU per thigh and then treated with compounds 11 and 12 (5 mg/kg per dose) by i.v. bolus injection in the tail vein at 1 and 7 h after infection.
A thigh burden model was employed to evaluate the in vivo anti-infective activity of compounds 11 and 12, in which the thigh muscle of neutropenic mice was inoculated with S. aureus, followed by intravenous (i.v.) administration of corresponding compounds. All protocols and methods associated with animal experiments were approved by University of South Florida (USF) Institutional Animal Care and Use Committee. The in vivo experiment on the mouse model of the thigh burden infection with MRSA was conducted adapted from previously reported protocol. The CD-1 female mice which were 6 to 8 weeks old and around 25 g in weights were used for the study. Neutropenic Mice were induced by injecting cyclophosphamide (150 mg/kg) intraperitoneally twice at 4 and 1 days before bacterial inoculation. One MRSA colony from tryptic soy agar (TSA) cultures was allowed to grow in tryptic soy broth (TSB) overnight at 37° C., then 100 μL culture was withdrawn and diluted with TSB to a total volume of 4 mL, which was subsequently incubated at 37° C. for another 6 h. […] The formed colonies were counted to calculate CFU per thigh.

[3] = tested on: vancomycin-resistant Enterococcus faecalis (ATCC 700802); experiment: MIC against VRE; format: cell-based; conditions: Gram +; 16 h, 37° C.
Experimental: as §1, §2

[4] = tested on: six bacteria strains (K. pneumoniae, P. aeruginosa, E. coli, VRE, MRSA, MRSE); experiment: Antimicrobial activity on the panel of six bacteria strains; format: cell-based
Experimental: as §1, §2

E. coli = experiment: Time-kill study; format: cell-based
Experimental: The killing activity was monitored for the first 2 h. The concentrations for compound 11 were 2×MIC, 4×MIC, and 8×MIC, respectively.
Time-kill studies were conducted to investigate the bacterial killing kinetics of compounds 11 and 12 by using E. Coli. Briefly, the bacteria […] grew to mid-logarithmic phase in TSB medium, from which the suspension (10^6 CFU/ml) was made. The suspension was incubated with different concentrations of 11 or 12 for 10 min, 30 min, 1 h and 2 h respectively. The mixtures were diluted by 10^2 to 10^4 fold and spread on TSB agar plates. After incubation at 37° C. overnight, the colonies on the plates were counted and plotted against the incubation time. […] Cell colonies were counted in agar plates at 12.5, 25, and 50 μg/mL. Compound 11 at the concentration of 12.5 or 25 μg/mL completely removed all bacteria in 2 hours, and at 50 μg/mL it completely removed bacteria in 0.5 hour. Compound 12 killed E. Coli completely in 0.5 hour at the concentration of 12.5 μg/mL.

[5] = tested on: Methicillin-resistant S. aureus (MRSA, ATCC 33591); experiment: MIC against MRSA; format: cell-based; conditions: Staphylococcus aureus; Gram +; 16 h, 37° C.
Experimental: as §1, §2

[6] = tested on: K. pneumoniae (ATCC 13383); experiment: MIC against K. pneumoniae; format: cell-based; conditions: Klebsiella pneumoniae, ATCC13383; Gram −; 16 h, 37° C.
Experimental: as §1, §2

E. coli (ATCC 25922) = experiment: MIC against E. coli; format: cell-based; conditions: Escherichia coli, ATCC25922; Gram −; 16 h, 37° C.
Experimental: as §1, §2

[7] = tested on: human red blood cells (hRBCs); experiment: Hemolytic assay; format: cell-based
Experimental: The freshly drawn, K2EDTA treated human red blood cells (hRBCs) were washed with 1×PBS buffer, and centrifuged at 3500 rpm for 10 min. The step was repeated until the supernatant became clear. The supernatant was removed, and the RBCs were diluted into 5% v/v suspension. 50 μL of the suspension was incubated with 50 μL of compounds of different concentrations at 37° C. for 1 h. The mixture was centrifuged at 3500 rpm for 10 min. Subsequently, to 30 μL of the supernatant 100 μL PBS was added, and the absorbance of the mixture at 540 nm was read on a Biotek Synergy HT plate reader. The positive control was 2% Triton X-100, and the negative control was 1×PBS alone. The hemolysis activity was calculated by the formula % hemolysis=(Abssample−AbsPBS)/(AbsTriton−AbsPBS)×100%. The experiment was repeated at least three times with duplicates each time.

With `CCCCCCN1C(=N)N(CC(=O)Nc2ccc(NC(=O)CN3C[C@H](Cc4ccccc4)N(CCCCCC)C3=N)cc2)C[C@@H]1Cc1ccccc1` [Compound 11] the MIC [1] was 6 µg/mL, the MIC [2] was 0.75 µg/mL and the “decrease in colony-forming unit (CFU) per thigh” value (S. aureus ATCC 33591) was 3 log10 CFU. The MIC [3] was 0.75 µg/mL, the “antibacterial activity against the tested bacteria (in words)” value [4] was “potent and broad-spectrum activity” and the “time to completely remove all bacteria” value (E. coli; 12.5 μg/mL) was 2 h. The “time to completely remove all bacteria” value (E. coli; 25 μg/mL) was 2 h, the “time to completely remove all bacteria” value (E. coli; 50 μg/mL) was 0.5 h and the MIC [5] was 0.33 µg/mL. For the same molecule, the MIC [6] was 1.5 µg/mL, the MIC (E. coli (ATCC 25922)) was 1.5 µg/mL and the “selectivity, hemolytic activity against MIC values of MRSA” value [7] was 769 folds.
